From patent US7507739B2, “6-[(substituted)phenyl]triazolopyrimidines as anticancer agents” (Wyeth, priority 2003, dated 2009)
Marks after values point to notes of the source that are not given here.

Columns and labels:
Type in all cases: in vivo, athymic mice
[1] = test system: H157 Human Non-Small Cell Lung Carcinoma; test: Human tumor xenograft test, H157; settings: for T/C on day 0 / T/C on day 7 / T/C on day 11 / T/C on day 14: days 0, 6
Experimental: (§1) The ability of compounds of this invention to inhibit tumor growth in animals is studied in the athymic mouse xenograft standard pharmacological test. Female nu/nu mice in an outbred albino background are obtained from Charles River Laboratories (Wilmington, Mass.). Animals are injected subcutaneously on the flank with the desired tumor cell suspension. Several days later, mice with tumors of approximately 150 mm^3 are selected from those injected (staged) and randomly distributed into groups of 5-10. The day of staging is called day 0. Compounds of the invention, usually formulated in saline (exceptions are noted in tables), are administered to animals by intravenous injection or oral gavage on various schedules starting on day 0 or 1, as noted in the tables. The control group in each experiment is dosed with vehicle on the same schedule. Tumor size is measured every 3-7 days with calipers in two orthogonal dimensions, and tumor volume is calculated from the formula volume=[(length×width^2)/2].
(§2) Tumor/Control (T/C) is obtained by dividing the mean tumor volume of the treated group by the mean tumor volume of the control group on each measurement day. A treatment dose is defined as active if it produced a statistically significant T/C of 0.50 or less. A p value≦0.05, determined by one-side Student's t-test, is required for statistical significance. A treatment dose is defined as toxic if more than 10% of the animals died from a compound-related toxicity.

[2] = test system: A549 Human Non-Small Cell Lung Carcinoma; test: Human tumor xenograft test, A549; settings: for T/C on day 0 / T/C on day 7 / T/C on day 14 / T/C on day 21 / T/C on day 27 / T/C on day 35: days 0, 6, 13, 20
Experimental: as §1, §2

[3] = test system: HT-29 Human Colon Carcinoma; test: Human tumor xenograft test, HT-29
Experimental: as §1, §2

[4] = test system: U87-MG Human Glioblastoma; test: Human tumor xenograft test, U87-MG; settings: U87-MG
Experimental: as §1, §2

[5] = test system: HCT-15 Human Colon Carcinoma; test: Human tumor xenograft test, HCT-15; settings: for T/C on day 0 / T/C on day 7 / T/C on day 13 / T/C on day 20: days 1, 8, 15
Experimental: as §1, §2

[6] = test system: LOX Human Melanoma; test: Human tumor xenograft test, LOX; settings: for tumor growth inhibition (activity call): LOX melanoma; for T/C on day 0 / T/C on day 7 / T/C on day 13: LOX, days 1, 5, 9, 13
Experimental: as §1, §2

CNCCCOc1cc(F)c(-c2c(Cl)nc3ncnn3c2N[C@@H](C)C(F)(F)F)c(F)c1.Cl [Example 2a, 5-Chloro-6-{2,6-difluoro-4-[3-(methylamino)propoxy]phenyl}-N-[(1S)-2,2,2-trifluoro-1-methylethyl][1,2,4]triazolo[1,5-a]pyrimidin-7-amine hydrogen chloride]
T/C on day 0 ([1]; H157, 7.5 mg/kg IV): 1.04 | T/C on day 7 ([1]; H157, 7.5 mg/kg IV): 0.54** | T/C on day 11 ([1]; H157, 7.5 mg/kg IV): 0.42** | T/C on day 14 ([1]; H157, 7.5 mg/kg IV): 0.45** | T/C on day 0 ([1]; H157, 15 mg/kg IV): 1.02 | T/C on day 7 ([1]; H157, 15 mg/kg IV): 0.55* | T/C on day 11 ([1]; H157, 15 mg/kg IV): 0.44* | T/C on day 14 ([1]; H157, 15 mg/kg IV): 0.42** | T/C on day 0 ([1]; H157, 25 mg/kg IV): 1.03 | T/C on day 7 ([1]; H157, 25 mg/kg IV): 0.62* | T/C on day 11 ([1]; H157, 25 mg/kg IV): 0.29** | T/C on day 14 ([1]; H157, 25 mg/kg IV): 0.30** | tumor growth inhibition (activity call) ([1]; H157 NSCLC, 25, 15 and 7.5 mg/kg intravenously on days 0 and 6): inhibited tumor growth | T/C on day 0 ([2]; A549, 15 mg/kg IV): 1.01 | T/C on day 7 ([2]; A549, 15 mg/kg IV): 0.75* | T/C on day 14 ([2]; A549, 15 mg/kg IV): 0.61** | T/C on day 21 ([2]; A549, 15 mg/kg IV): 0.83 | T/C on day 27 ([2]; A549, 15 mg/kg IV): 0.75 | T/C on day 35 ([2]; A549, 15 mg/kg IV): 0.76 | tumor growth inhibition (activity call) ([2]; A549, 15 mg/kg intravenously on days 0, 6, 13, and 20): not at 15 mg/kg | T/C on day 0 ([2]; A549, 20 mg/kg IV): 0.97 | T/C on day 7 ([2]; A549, 20 mg/kg IV): 0.79 | T/C on day 14 ([2]; A549, 20 mg/kg IV): 0.55** | T/C on day 21 ([2]; A549, 20 mg/kg IV): 0.59* | T/C on day 27 ([2]; A549, 20 mg/kg IV): 0.50* | T/C on day 35 ([2]; A549, 20 mg/kg IV): 0.49* | T/C on day 0 ([2]; A549, 25 mg/kg IV): 0.99 | T/C on day 7 ([2]; A549, 25 mg/kg IV): 0.72* | T/C on day 14 ([2]; A549, 25 mg/kg IV): 0.51** | T/C on day 21 ([2]; A549, 25 mg/kg IV): 0.57* | T/C on day 27 ([2]; A549, 25 mg/kg IV): 0.48* | T/C on day 35 ([2]; A549, 25 mg/kg IV): 0.44* | tumor growth inhibition (activity call) ([2]; A549, 25 and 20 mg/kg intravenously on days 0, 6, 13, and 20): inhibited the growth | T/C on day 0 ([3]; HT-29, 25 mg/kg IV, days 1, 7): 1.00 | T/C on day 7 ([3]; HT-29, 25 mg/kg IV, days 1, 7): 0.44** | T/C on day 10 ([3]; HT-29, 25 mg/kg IV, days 1, 7): 0.34** | T/C on day 13 ([3]; HT-29, 25 mg/kg IV, days 1, 7): 0.26** | T/C on day 21 ([3]; HT-29, 25 mg/kg IV, days 1, 7): 0.43** | T/C on day 24 ([3]; HT-29, 25 mg/kg IV, days 1, 7): 0.46** | tumor growth inhibition (activity call) ([3]; HT-29, 25 mg/kg intravenously on days 1 and 7): inhibited the growth | tumor growth inhibition (activity call) ([4]; orally single dose on day 0 at 5 or 2.5 mg/kg): not at 5 or 2.5 mg/kg | tumor growth inhibition (activity call) ([4]; orally single dose on day 0 at 30, 20, and 10 mg/kg): inhibited the growth | T/C on day 0 ([5]; HCT-15, 10 mg/kg IV): 1.00 | T/C on day 7 ([5]; HCT-15, 10 mg/kg IV): 0.81 | T/C on day 13 ([5]; HCT-15, 10 mg/kg IV): 1.03 | T/C on day 20 ([5]; HCT-15, 10 mg/kg IV): 0.75 | T/C on day 0 ([5]; HCT-15, 20 mg/kg IV): 1.00 | T/C on day 7 ([5]; HCT-15, 20 mg/kg IV): 0.86 | T/C on day 13 ([5]; HCT-15, 20 mg/kg IV): 0.50* | T/C on day 20 ([5]; HCT-15, 20 mg/kg IV): 0.43* | tumor growth inhibition (activity call) ([5]; HCT-15, 20 mg/kg intravenously on days 1, 8, and 15): active | T/C on day 0 ([5]; HCT-15, 25 mg/kg IV): 1.00 | T/C on day 7 ([5]; HCT-15, 25 mg/kg IV): 0.78 | T/C on day 13 ([5]; HCT-15, 25 mg/kg IV): 0.60 | T/C on day 20 ([5]; HCT-15, 25 mg/kg IV): 0.44 | tumor growth inhibition (activity call) ([6]; 1 mg/kg intravenously on days 1, 5, 9, and 13): not at 1 mg/kg | tumor growth inhibition (activity call) ([6]; 6 and 3 mg/kg intravenously on days 1, 5, 9, and 13): active | T/C on day 0 ([6]; 1 mg/kg IV): 1.00 | T/C on day 7 ([6]; 1 mg/kg IV): 0.81 | T/C on day 13 ([6]; 1 mg/kg IV): 0.95 | T/C on day 0 ([6]; 3 mg/kg IV): 1.00 | T/C on day 7 ([6]; 3 mg/kg IV): 0.31** | T/C on day 13 ([6]; 3 mg/kg IV): 0.36 | T/C on day 0 ([6]; 6 mg/kg IV): 1.00 | T/C on day 7 ([6]; 6 mg/kg IV): 0.17** | T/C on day 13 ([6]; 6 mg/kg IV): 0.12**
